Assay results reported in patent US11234941B2, “Oil-free carotenoid composition” (GAT Therapeutics S.L., priority 2017, dated 2022).

Experiments:
[1] = target: T1, glucocorticoid receptor (GR) (Homo sapiens, UniProt P04150); assay: SelectScreen cell-based GR antagonist assay (UAS-bla HEK 293T, beta-lactamase reporter, dexamethasone as agonist)
T1 construct: the UAS-driven beta-lactamase is the reporter
T1 sequence (P04150 524-777 limits assumed): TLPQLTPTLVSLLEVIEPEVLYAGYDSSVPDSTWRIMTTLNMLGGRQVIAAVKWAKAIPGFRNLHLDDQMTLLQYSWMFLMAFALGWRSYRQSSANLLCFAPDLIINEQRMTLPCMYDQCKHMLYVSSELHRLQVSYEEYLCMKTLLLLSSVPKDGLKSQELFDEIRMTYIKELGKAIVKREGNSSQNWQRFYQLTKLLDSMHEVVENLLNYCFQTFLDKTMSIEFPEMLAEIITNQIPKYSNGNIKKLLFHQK
Method: An antagonist assay for GR was performed by SelectScreen® Cell-Based Nuclear Receptor Profiling Service of Life Technologies. […] Detection method is based on a beta-lactamase reporter gene (bla) combined with a FRET-enabled substrate. The data obtained in these assays was modelled to a sigmoidal dose response curve.

[2] = Observation of precipitation and aggregates during nanoparticle preparation; settings: after addition of the xanthophyll to the albumin solution
Method: To prepare bovine serum albumin (BSA)—astaxanthin nanoparticles, albumin (20 mg, 5 mg or 1 mg depending on the protein:carotenoid ratio) was dissolved in 1 mL deionized water and 1 mg of astaxanthin was dissolved in 0.25 mL THF. The astaxanthin solution was slowly added to the BSA solution under stirring and nitrogen atmosphere. When the addition of carotene was completed the solution was stirred at room temperature for 10 additional minutes. The organic solvent (THF) in the mixed solution was slowly removed by speed vacuum at 25° C. Distillation was completed when the total solution volume was reduced by ⅔. Finally, the nanoparticle solutions were filtered through a 0.22 μm PES membrane filter and immediately stored in the dark at 4° C.

[3] = at 10 μM, against dexamethasone

| Molecule | GR inhibition [1, 3] | antagonist effect on GR ([1]; against dexamethasone) | other results |
| --- | --- | --- | --- |
| CC(=C/C=C/C(C)=C/C=C/C=C(C)/C=C/C=C(\C)C=C=C1C(C)(C)C[C@H](O)C[C@@]1(C)O)/C=C/[C@@]12O[C@]1(C)C[C@@H](O)CC2(C)C [Neoxanthin, neoxanthin] | above 85% | – | – |
| CC1=C(/C=C/C(C)=C/C=C/C(C)=C/C=C/C=C(C)/C=C/C=C(C)/C=C/C2=C(C)CCCC2(C)C)C(C)(C)CCC1 [beta-carotene, reference compound] | – | neither compound exercised an antagonist effect on GR | – |
| CC(=O)O[C@H]1CC(C)(C)C(=C=C/C(C)=C/C=C/C(C)=C/C=C/C=C(C)/C=C/C=C(\C)C(=O)/C=C2/C(C)(C)C[C@H](O)C[C@@]2(C)O)[C@](C)(O)C1 [isofucoxanthin] | 80% | – | – |
| CC1=C[C@H](O)CC(C)(C)[C@H]1/C=C/C(C)=C/C=C/C(C)=C/C=C/C=C(C)/C=C/C=C(C)/C=C/C1=C(C)C[C@@H](O)CC1(C)C [lutein] | – | – | inhibition at 10 µM ([1]; HEK-293T, at 10 μM, against dexamethasone): 80% |
| fucoxanthin | 50% | – | concentration from which it acts as GR antagonist ([1]; against the agonist dexamethasone): 30 nM; formation of aggregates with poor solubility during nanoparticle preparation [2]: not observed |
| CC1=C(/C=C/C(C)=C/C=C/C(C)=C/C=C/C=C(C)/C=C/C=C(C)/C=C/C2=C(C)C(=O)[C@@H](O)CC2(C)C)C(C)(C)C[C@H](O)C1=O [astaxanthin, reference compound] | – | neither compound exercised an antagonist effect on GR | – |
